“And” between values parts separate entries of the source, which are not always exact repeats. Equal entries are not always repeated.
Assays:
[1] = test system: E-cadherin expression in HCT-116 cells; experiment: Western blot of E-cadherin expression, CXCR4-negative HCT-116 cells; format: cell-based
Experimental: (§1) HCT-8, HT-29, and HT-116 cells were grown in DMEM medium supplied with 10% fetal bovine serum (FBS) and 1% penicillin-streptomycin. Caco-2 cells were grown in DMEM medium supplied with 10% FBS, 1% non-essential amino acid NEAA), and 1% penicillin-streptomycin. Cells were cultured at 37 °C and 5% CO2. As cells reached confluency, they were detached using 0.25% Trypsin-EDTA.
(§2) For Western blot analyses, HCT-8 (n = 15), HCT-116 (n = 12), Caco-2 (n = 6), and HT-29 (n = 12) cells were seeded in 6-well plates at a density of 1 × 10^6 cells/well. Twenty-four hours after seeding, all cell lines were treated with 1 μM EntF* or a placebo solution. HCT-8 cells were also tested for responsiveness to 1 μM EntF* synthetic alanine-derived analogs. For antagonist activity analysis, HCT-8 cells were treated with 1 μM Nef-M1 or 1 μM EntF*A1 alone or in combination with 500 nM EntF*. After 24 h, cells were detached from the surface and lysed in RIPA buffer (Thermo Scientific). Protein concentration was determined using the modified Lowry protein assay kit (Thermo Scientific), according to the manufacturer’s instructions. Protein samples were diluted to the same concentration (4 μg/μL) with water and diluted again 1:1 using 2x Laemmli buffer. After that, samples were boiled for 5 min at 95 °C to denature proteins and centrifuged for 5 min at 16,000g; supernatants were used for Western blot analyses. Equal amounts of total protein (20 μg/lane) were separated by SDS-PAGE on an Any kD^TM gel (Bio-Rad ) and then transferred to a PVDF membrane. Before incubation with antibodies, non-specific binding sites on the membranes were blocked using 5% skimmed milk solution (1 h). TBS buffer with 0.05% Tween 20 was used for all washing steps. Membranes were incubated overnight at 4 °C with an anti-E-cadherin primary antibody (1/1000 dilution). An HRP-conjugated anti-rabbit antibody (1/2000 dilution, 1 h incubation) was used for chemiluminescent detection. Membranes were incubated with the detection substrate for 5 min and signal detection was performed using the ChemiDoc EZ imager and Image Lab software (Bio-Rad). Signal intensity was normalized against the total protein content in each lanes.

[2] = test system: E-cadherin expression in HT-29 cells; experiment: Western blot of E-cadherin expression, HT-29 cells; format: cell-based; details: HT-29 cells, average of n = 12
Experimental: as §1
as §2, with “Signal intensity was normalized against the total protein content in each lanes.” left out

[3] = test system: E-cadherin expression in Caco-2 cells; experiment: Western blot of E-cadherin expression, Caco-2 cells; format: cell-based; details: CaCo-2 cells, average of n = 6
Experimental: as §1
as §2, with “Signal intensity was normalized against the total protein content in each lanes.” left out

[4] = test system: E-cadherin expression in HCT-8 cells; experiment: Western blot of E-cadherin expression, HCT-8 cells (EntF*, alanine and D-amino acid analogs); format: cell-based
Experimental: as §1, §2
A quantitative approach was used to evaluate the importance of each amino acid, where the Fisher’s LSD p-values of (1) multiple comparisons between EntF* and the alanine (ALA) scan and (2) multiple comparisons between different peptides of the ALA scan are combined. Subsequently, based on the combined P-score, the amino acids were classified in 5 classes using a hierarchical cluster analysis and confirmed using the Jenks natural breaks algorithm with K = 5. CombinedPscore=1-PPBSvsALAscan*PEntF*vsALAscan

[5] = test system: luciferase-transfected HCT-8/E11 cells injected into the cecal wall; experiment: Orthotopic mouse model: macroscopic number of tumor nodules on the cecum; format: in vivo, female athymic nude mice (Swiss nu/nu)
Experimental: (§3) Six-week-old female athymic nude mice (Swiss nu/nu) were anesthetized, and a minimally invasive midline laparotomy was performed to localize the cecum. The cecum was then gently pulled out, and luciferase-transfected HCT-8/E11 cells (1 × 10^6 cells) in 20 μL serum-free DMEM medium with Matrigel (1:1) were injected into the cecal wall. Before implantation, cells were treated with EntF* (10^2 nM), Phr0662 (10^2 nM), vehicle (PBS), or TGFα positive control (0.1 μg mL^−1) solutions for 5 days. The cecum was then carefully placed back into the abdominal cavity and the surgical incision was closed with two layers of sutures with PDS 6-0. […] Once a week, mice were examined for tumor growth and metastases using bioluminescent imaging with the IVIS Lumina II (Perkin Elmer, Belgium) after i.p. injection with 200 μL luciferin (150 mg kg^−1). After 6 weeks, mice were euthanized using cervical dislocation, and the liver, diaphragm, lungs, cecum, duodenum, and peritoneum were macroscopically examined for the presence of tumor nodules. Liver and lung tissues were then fixed in formalin for 24 h and stored in 70% ethanol for maximum 3 days before embedding in paraffin. Next, a hematoxylin and eosin (H&E) staining was performed on 8 μm sections, and 3 sections per mouse were visualized using microscopy. Slides from tumor-bearing mice were analyzed by two blinded, independent investigators using the scoring system described in Additional file 5: Table S3. In case of differences, slides were scored by a third blinded, independent investigator for consensus.
The Kolmogorov-Smirnov test was used to assess if data obtained were normally distributed. For sample size n < 10, non-parametric tests (Mann-Whitney U test) were performed directly. Slope comparison was based on linear regression analysis. Bootstrapped medians and Hedges G-values were used to calculate the effect size when sample sizes were different between the groups. Cohen’s d values were calculated as a measure of the effect size when similar standard deviations for both groups were found, and sample sizes were the same.

[6] = test system: tumor nodules in the liver; experiment: Orthotopic mouse model: histopathological evaluation of liver; format: in vivo, female athymic nude mice (Swiss nu/nu)
Experimental: as §3

[7] = test system: tumor nodules in the lungs; experiment: Orthotopic mouse model: histopathological evaluation of lungs; format: in vivo, female athymic nude mice (Swiss nu/nu)
Experimental: as §3

[8] = test system: luciferase-transfected HCT-8/E11 cells injected into the cecal wall; experiment: Orthotopic mouse model of colorectal cancer: weekly bioluminescent imaging; format: in vivo, female athymic nude mice (Swiss nu/nu)
Experimental: All in vivo experiments were performed according to the Ethical Committee principles of laboratory animal welfare, approved by our institute (Ghent University, Faculty of Medicine and Health Sciences, approval number ECD 17-90). Mice were maintained in a sterile environment under controlled conditions (light–dark cycle with light from 7:00 h to 17:00 h, temperature 21–25 °C and humidity 45–65%). Before the experiment, mice were allowed to acclimate to the abovementioned conditions for a minimum of 7 days.
as §3
The Kolmogorov-Smirnov test was used to assess if data obtained were normally distributed. For sample size n < 10, non-parametric tests (Mann-Whitney U test) were performed directly. Slope comparison was based on linear regression analysis. Bootstrapped medians and Hedges G-values were used to calculate the effect size when sample sizes were different between the groups.

[9] = after a 6-week treatment, compared to the placebo group
[10] = individual samples, one line per sample

## C-X-C motif chemokine 12 (KPVSLSYRC; only N-terminal stretch given) [CXCL12, endogenous ligand of the CXCR4 receptor]
[1]; CXCR4-negative cells, 24 h, n = 12
  effect on E-cadherin expression in HCT-116 cells: no decrease
[1]; HCT-116 cells, average of n = 12
  Relative E-cadherin level: 111.3
[2]
  Relative E-cadherin expression, average: 78.2
[3]
  Relative E-cadherin in different cell lines, Average: 45.3
[4]; 24 h, n = 15
  effect on E-cadherin levels in HCT-8 cells: significant decrease
[4]; D-scan sheet, Blot 13, CXCL12 1µg/ml, relative to H2O lane = 100.0, single blot
  E-cadherin expression relative to H2O control (= 100): 89.3
[4]; D-scan sheet, Blot 14, CXCL12 1µg/ml, relative to H2O lane = 100.0, single blot
  E-cadherin expression relative to H2O control (= 100): 93.2
[4]; D-scan sheet, Blot 15, CXCL12 1µg/ml, relative to H2O lane = 100.0, single blot
  E-cadherin expression relative to H2O control (= 100): 77.6
[4]; D-scan sheet, Blot 16, CXCL12 1µg/ml, relative to H2O lane = 100.0, single blot
  E-cadherin expression relative to H2O control (= 100): 91.1
[4]; D-scan sheet, Blot 17, CXCL12 10µg/ml, relative to H2O lane = 100.0, single blot
  E-cadherin expression relative to H2O control (= 100): 46.4
[4]; D-scan sheet, Blot 18, CXCL12 10µg/ml, relative to H2O lane = 100.0, single blot
  E-cadherin expression relative to H2O control (= 100): 45.6
[4]; D-scan sheet, Blot 19, CXCL12 10µg/ml, relative to H2O lane = 100.0, single blot
  E-cadherin expression relative to H2O control (= 100): 84.8
[4]; D-scan sheet, Blot 20, CXCL12 10µg/ml, relative to H2O lane = 100.0, single blot
  E-cadherin expression relative to H2O control (= 100): 28.8
[4]; D-scan sheet, Blot 21, CXCL12 100µg/ml, relative to H2O lane = 100.0, single blot
  E-cadherin expression relative to H2O control (= 100): 80.5
[4]; D-scan sheet, Blot 22, CXCL12 100µg/ml, relative to H2O lane = 100.0, single blot
  E-cadherin expression relative to H2O control (= 100): 80.0
[4]; D-scan sheet, Blot 23 (single blot), chemiluminescence band, Norm. Vol. relative to H2O lane = 100.0, CXCL12 at 100µg/ml
  E-cadherin expression relative to H2O control (= 100): 75.6
[4]; D-scan sheet, Blot 24 (single blot), chemiluminescence band, Norm. Vol. relative to H2O lane = 100.0, CXCL12 at 100µg/ml
  E-cadherin expression relative to H2O control (= 100): 96.6
[4]; H2O = 100.0, CXCL12 at 10µg/ml, mean of the replicates (row r47, unlabelled; SEM in row below)
  E-cadherin expression relative to H2O control (= 100): 51.4
[4]; HCT-8 cells, average (EntF* n = 15, CXCL12 n = 4)
  Relative E-cadherin decrease in different cell lines, Average: 51.4

## Epidermal Growth Factor [EGF]
[5]; [9]
  effect size class by Hedges' G, number of nodules in the cecum: large
[5]; after a 6-week treatment, macroscopic inspection
  increase in the number of nodules on the cecum compared to PBS vehicle: 4.5 fold
[5]; macroscopic evaluation caecum, mean of the group
  Mean amount of nodules: 16.3
[6]; [10]
  Histology scoring LIVER, Scoring person 1 (ND): 4 and 3 and 2 and 0
  Histology scoring LIVER, Scoring person 2 (ADS): 4 and 2 and 1 and 3 and 0
  Histology scoring LIVER, conclusion per sample: 4 and 2 and 1 and 3 and 0
[6]; per group
  Histology scoring LIVER, conclusion per group: 3
[7]; [10]
  Histology scoring LUNGS, Scoring person 1 (ND): 3 and 4 and 0 and 1
  Histology scoring LUNGS, Scoring person 2 (ADS): 3 and 4 and 0 and 1
  Histology scoring LUNGS, conclusion per sample: 3 and 4 and 0 and 1
[7]; per group
  Histology scoring LUNGS, conclusion per group: 3
[8]; after a 6-week treatment
  effect size of bioluminescence, upper end of range: 826%
[8]; [9]
  effect size class by Hedges' G, bioluminescence: medium to large effect
[8]; after a 6-week treatment, bootstrapped median
  effect size: increase in bioluminescence compared to the placebo: 316%
[8]; daily i.p. over 6 weeks, linear regression slope comparison
  luciferase activity / tumor growth compared to the vehicle: significant increase in tumor growth

## TGFa
[4]; Ala-scan sheet, Blot 19 (single blot), chemiluminescence band, placebo lane = 100
  Relative E-cadherin decrease: 49.4514
[4]; Ala-scan sheet, Blot 20 (single blot), chemiluminescence band, placebo lane = 100
  E-cadherin expression relative to H2O control (= 100): 55.9239
[4]; Ala-scan sheet, Blot 21 (single blot), chemiluminescence band, placebo lane = 100
  Relative E-cadherin decrease: 121.047
[4]; Ala-scan sheet, Blot 24 (single blot), chemiluminescence band, Norm. Vol. relative to placebo lane = 100
  E-cadherin expression relative to H2O control (= 100): 52.2
[4]; Ala-scan sheet, Blot 25 (single blot), chemiluminescence band, Norm. Vol. relative to placebo lane = 100
  E-cadherin expression relative to H2O control (= 100): 30.5
[4]; Ala-scan sheet, Blot 26 (single blot), chemiluminescence band, Norm. Vol. relative to placebo lane = 100
  E-cadherin expression relative to H2O control (= 100): 88.2
[4]; Ala-scan sheet, Blot 27 (single blot), chemiluminescence band, Norm. Vol. relative to placebo lane = 100
  E-cadherin expression relative to H2O control (= 100): 330.9
[4]; Ala-scan, Blot 11 (single blot replicate), normalized band volume relative to Placebo = 100.0
  E-cadherin expression relative to H2O control (= 100): 85.7
[4]; Ala-scan, Blot 12 (single blot replicate), normalized band volume relative to Placebo = 100.0
  E-cadherin expression relative to H2O control (= 100): 80.6
[4]; Ala-scan, Blot 13 (single blot replicate), normalized band volume relative to Placebo = 100.0
  E-cadherin expression relative to H2O control (= 100): 55.6
[4]; Ala-scan, Blot 14 (single blot replicate), normalized band volume relative to Placebo = 100.0
  E-cadherin expression relative to H2O control (= 100): 119.9
[4]; Ala-scan, Blot 18 (single blot replicate), normalized band volume relative to Placebo = 100.0
  E-cadherin expression relative to H2O control (= 100): 188.1
[4]; H2O = 100.0, mean of the replicates (row r29, unlabelled; SEM in row below)
  Ala scan: Relative E-cadherin decrease: 73.9
[4]; H2O vs. test, 95% CI, Dunnett's and Fisher's LSD P values in neighbouring columns
  Ala-scan: Mean decrease (%): 26.1%

Source: paper PMC9238271, “The quorum sensing peptide EntF* promotes colorectal cancer metastasis in mice: a new factor in the host-microbiome interaction” (BMC Biology, 2022)
